According to patent US9155696B2, “Pharmaceutical compositions” (Novartis AG, priority 2008, dated 2015):

Test system: erythrocytes of female and male blood donor
Experiment: Hemolysis study of solvents
Type: cell-based
Conditions: for Hemolysis [%]: female and male blood donor (n = 4)
Experimental: To outline the suitability of PEG500DME as a solvent for parenteral use, a hemolysis study was performed: […]

[1] = dilution 1:2 with 0.9% NaCl solution
[2] = dilution 1:4 with 0.9% NaCl solution
[3] = dilution 1:8 with 0.9% NaCl solution
[4] = dilution 1:16 with 0.9% NaCl solution
[5] = dilution 1:32 with 0.9% NaCl solution
[6] = dilution 1:64 with 0.9% NaCl solution
[7] = dilution 1:128 with 0.9% NaCl solution

Q: Which “Hemolysis [%] in donor one” value (dilution 0 (pure solvent)) does the source give for `CN1CCCC1=O` [NMP, 1-methyl-2-pyrrolidinone] here?
A: 28%

Q: And the “Hemolysis [%] in donor one” value [1]?
A: 0%

Q: What about the “Hemolysis [%] in donor one” value [2] of the same molecule?
A: 0%

Q: And the “Hemolysis [%] in donor one” value [3]?
A: 0%

Q: What about the “Hemolysis [%] in donor one” value [4] of the same molecule?
A: 0%

Q: And the “Hemolysis [%] in donor one” value [5]?
A: 0%

Q: What about the “Hemolysis [%] in donor one” value [6] of the same molecule?
A: 0%

Q: What about the “Hemolysis [%] in donor one” value [7] of the same molecule?
A: 0%

Q: What about the “Hemolysis [%] in donor two” value (dilution 0 (pure solvent)) of the same molecule?
A: 54%

Q: And the “Hemolysis [%] in donor two” value [1]?
A: 10%

Q: What about the “Hemolysis [%] in donor two” value [2] of the same molecule?
A: 1%

Q: What about the “Hemolysis [%] in donor two” value [3] of the same molecule?
A: 1%

Q: What about the “Hemolysis [%] in donor two” value [4] of the same molecule?
A: 1%

Q: And the “Hemolysis [%] in donor two” value [5]?
A: 1%

Q: What about the “Hemolysis [%] in donor two” value [6] of the same molecule?
A: 1%

Q: And the “Hemolysis [%] in donor two” value [7]?
A: 1%

Q: And the “Hemolysis [%]” value [1]?
A: 7.8 ± 5.6%

Q: What about the “Hemolysis [%]” value [2] of the same molecule?
A: 0.5 ± 0.6%

Q: And the “Hemolysis [%]” value [3]?
A: 0.3 ± 0.5%

Q: What about the “Hemolysis [%]” value [4] of the same molecule?
A: 0.3 ± 0.5%

Q: And the “Hemolysis [%]” value [5]?
A: 0.3 ± 0.5%

Q: What about the “Hemolysis [%]” value [6] of the same molecule?
A: 0.3 ± 0.5%

Q: And the “Hemolysis [%]” value [7]?
A: 0.3 ± 0.5%
